Measurements: patent publication US8911342B2, “Apparatus and method for pulsed electrical field treatment” (Re5 ApS, priority 2009, dated 2014)

Tested on: Human neural cells line from sympatic ganglia - SHSY-5Y
Conditions: sertraline 10 μM 24 hours, then PEMF 2 hrs at 50 or 55 Hz, vs control cells, PCR array

CN[C@H]1CC[C@@H](c2ccc(Cl)c(Cl)c2)c2ccccc21 [sertraline, (1S,4S)-4-(3,4-dichlorophenyl)-N-methyl-1,2,3,4-tetrahydronaphthalen-1-amine]
Fold increase in mRNA, Bone morphonogenic Protein 1 (BMP1): 4 fold
Fold increase in mRNA, Bone morphonogenic Protein 5 (BMP5): 8 fold
Fold increase in mRNA, IL-17B: 8 fold
Fold increase in mRNA, IL-18: 4 fold
Fold increase in mRNA, IL-20: 4 fold
Fold increase in mRNA, IL-21: 4 fold
Fold increase in mRNA, Il-8: 8 fold
Fold increase in mRNA, Interleukin 10 (IL-10): 1 fold
Fold increase in mRNA, TNF SF10: 8 fold
Fold increase in mRNA, TNF SF11: 2 fold
Fold increase in mRNA, TNFR SF11: 8 fold
Fold increase in mRNA, Transforming growth factor beta 3 (TGFB3): 5 fold
Fold increase in mRNA, Tumor necrosis factor (TNF): 8 fold
